Consider four compounds from PMC7497412 (RSC Advances, 2020).

One assay relates to M. abs. The experiment in a line: MIC against M. abs. Type of assay: cell-based, Mycobacterium abscessus. The note with it: Mycobacteroides abscessus, read-out: M. abs MIC.
In the next assay the test system is M. avium. Briefly: MIC against M. avium. The assay is classed as cell-based. The note with it: Mycobacterium avium, read-out: M. avium MIC.
The subject of the next assay is M. tb V4207/DS. Briefly: microbe, parasite or virus in culture. Type of assay: cell-based. As to conditions: Mycobacterium tuberculosis, read-out: M. tb MIC V4207/DS.
The test system of another assay is Vero cells. The experiment in a line: Cytotoxicity on Vero cells. As to conditions: for SI (selectivity index): SI = IC50(Vero)/MIC. Type of assay: cell-based.
Where [1] appears, read: Chlorocebus sabaeus, Vero, read-out: IC50 Vero cells, cytotoxicity, Vero cells.
[2] abbreviates: read-out: IC50 Vero cells, cytotoxicity, Vero cells.

Each structure is given as a SMILES string. Converted amounts (≈) assume the structure as drawn. Like-named read-outs stand apart in the source and are kept apart here.

Regarding `O=C(NC12CC3CC(CC(C3)C1)C2)c1cc(=O)c2c(Br)cccc2[nH]1` [8i, N-(1-Adamantanyl)-5-bromo-4-oxo-1,4-dihydroquinoline-2-carboxamide], the results for the MIC with M. abs, with M. avium and in the assay on M. tb V4207/DS were more than 159 µM, more than 159 µM and 9.97 µM (≈ 4 µg/mL), respectively. Further, the “SI (selectivity index)” value in the assay with Vero cells stood at 4.

For `O=C(NC1CCCCCCC1)c1ccc2ccccc2c1` [13c, N-Cyclooctyl-2-naphthamide], the MIC is more than 227 µM with M. abs, more than 227 µM in the assay with M. avium and 7.11 µM (≈ 2 µg/mL) in the assay on M. tb V4207/DS. In the assay on Vero cells (setting [1]), the IC50 is not below 227 µM. The “SI (selectivity index)” value with Vero cells was not below 32.

`O=C(NC12CC3CC(CC(C3)C1)C2)c1ccc2ccccc2c1` [13d, N-(1-Adamantanyl)-2-naphthamide]: the values for the MIC with M. abs, in the assay with M. avium and in the assay on M. tb V4207/DS were more than 209 µM, more than 209 µM and 6.55 to 13.1 µM (≈ 2 to 4 µg/mL), respectively. Besides, the IC50 in the assay with Vero cells (setting [1]) was not below 227 µM; in the assay with Vero cells (setting [2]) it was not below 419 µM. Further, the “SI (selectivity index)” value with Vero cells is on record as not below 64.

As for `O=C(Nc1nc(-c2ccc(Cl)cc2Cl)cs1)C12CC3CC(CC(C3)C1)C2` [18b, N-(4-(2,4-Dichlorophenyl)thiazol-2-yl)adamantane-1-carboxamide], the MIC was more than 157 µM with M. abs, more than 157 µM in the assay on M. avium and 9.82 µM (≈ 4 µg/mL) with M. tb V4207/DS. The results for the half-inhibitory concentration (IC50) in the assay with Vero cells (setting [1]) and with Vero cells (setting [2]) were 9.82 to 39.9 µM and 9.82 µM, respectively. In the assay on Vero cells, the “SI (selectivity index)” value is given as 1.

As usually defined, the IC50 is the concentration that gives 50% inhibition.
